# Assay results taken from patent US8999921B2, “Process for diagnosing rheumatic diseases” (Cypress Bioscience, Inc., priority 2005, dated 2015).
# Key:
# [1] = target: T1, antibody binding to mutated vimentin (Homo sapiens, UniProt P08670, A54Y/A67Y/G16R/G41R/G59R/G76R/P18T/P24T/P46T/P75T/R78S); assay: Blocking of antibody binding to mutated vimentin in vitro (ELISA, RA sera)
# T1 construct: His-tag; made in house; host or cells: E. coli
# Experimental: To prepare an extract from green tea, 5 g of any commercially available tea were covered with 10 ml of 80% DMSO and stirred overnight. The solution was centrifuged at 13 000 rpm for 10. min and defined as tea extract. In contrast to the above solid substances 1, 2 and 4-6, 10 μl/ml tea extract of this preparation were employed. Antibody binding in the presence and absence of substances was analyzed in an ELISA for which microtiter plates were prepared analogously to Example 2. Different sera of RA patients were used in dilutions of from 1:100 to 1:400. Blocking of antibody binding was induced by preincubating 100 μl of the diluted serum with the substances or tea solutions indicated for 10 min. Subsequently, the remaining crossreaction was analyzed by transferring the 100 μl of serum-substance mixture to the cavities of said microtiter plate. According to the procedure of a classical ELISA, the bound antibodies were detected by means of a HRP-conjugated anti-human IgG. FIG. 3 depicts by way of example the results obtained using patient serum No. 400725.
# [2] = Oral administration of freeze-dried tea extract to rats, plasma analysis by HPLC and GC/MS; type: in vivo
# Description: Therefore the tea extracts prepared by us (see Example 7) were freeze-dried and reconstituted with cocoa oil or salmon oil. After oral administration of an extract prepared from 5 g of green tea (5 g/kg of body weight) to rats, blood was taken every half hour and analyzed by means of HPLC and GC/MS.
# [3] = target: vimentin (Homo sapiens, UniProt P08670); conditions: Ermakova et al. 2005; cited from earlier work
# [4] = tested on: antibodies to the polypeptides of the invention; assay: Follow-up of antibody titer (ELISA based on the polypeptide) and DAS score in treated RA patients; type: in vivo, human; conditions: for antibody titers, fraction of the starting value: patients with low disease activity (average DAS 2.8), in the course of 1-2 years, on average; for alteration in the DAS score due to treatment: severe rheumatoid arthritis (average DAS score of 4.9)
# Description: Patients having low disease activity (average DAS score of 2.8) were identified by an ELISA based on the polypeptide of the invention (<300 U/ml on average). Correlating with the success of treatment (DAS score less than 1.5 after treatment) with sulfasalazine or cortisone, the antibody titers were reduced to, on average, ⅙ of the starting value in the course of 1-2 years.
# Patients suffering from severe rheumatoid arthritis (average DAS score of 4.9) had, on average, an antibody titer of >1000 U/ml. […] In parallel with the altered antibody titer, patients reported during anamnesis a substantially more positive overall evaluation of their subjective situation regarding the disease, i.e. the diagnostic agent of the invention is also suitable for quality control of the therapy of a severe rheumatoid arthritis.
# [5] = extract from 5 g green tea (5 g/kg of body weight)
# T1 sequence (P08670 whole entry G16R/P18T/P24T/G41R/P46T/A54Y/G59R/A67Y/P75T/G76R/R78S): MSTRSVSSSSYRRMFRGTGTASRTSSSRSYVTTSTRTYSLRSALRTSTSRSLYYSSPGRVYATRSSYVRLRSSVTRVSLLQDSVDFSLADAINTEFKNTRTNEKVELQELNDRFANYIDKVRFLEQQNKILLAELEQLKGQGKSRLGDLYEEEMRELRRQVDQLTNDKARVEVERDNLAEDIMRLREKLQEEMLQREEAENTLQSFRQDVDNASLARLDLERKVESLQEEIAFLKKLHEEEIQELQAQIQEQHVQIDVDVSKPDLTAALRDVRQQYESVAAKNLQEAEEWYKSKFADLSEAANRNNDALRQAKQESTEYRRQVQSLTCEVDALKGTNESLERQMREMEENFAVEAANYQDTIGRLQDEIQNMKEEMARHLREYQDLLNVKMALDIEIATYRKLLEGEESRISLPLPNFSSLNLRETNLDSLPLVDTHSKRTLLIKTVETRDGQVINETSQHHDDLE
# vimentin, sequence (P08670 whole entry, species assumed): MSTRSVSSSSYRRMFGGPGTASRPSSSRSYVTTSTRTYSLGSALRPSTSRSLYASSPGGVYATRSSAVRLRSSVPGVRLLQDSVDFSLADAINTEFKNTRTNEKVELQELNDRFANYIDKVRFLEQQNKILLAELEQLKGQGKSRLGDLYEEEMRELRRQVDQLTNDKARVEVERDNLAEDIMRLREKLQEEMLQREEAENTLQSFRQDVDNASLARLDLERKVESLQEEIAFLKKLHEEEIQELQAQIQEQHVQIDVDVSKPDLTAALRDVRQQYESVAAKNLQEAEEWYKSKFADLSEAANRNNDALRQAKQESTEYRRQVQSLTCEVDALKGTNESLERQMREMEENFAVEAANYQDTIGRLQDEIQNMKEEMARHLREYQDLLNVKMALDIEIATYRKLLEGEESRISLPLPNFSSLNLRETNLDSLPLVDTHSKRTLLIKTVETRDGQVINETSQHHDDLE
molecule,measurement,setting,value
"O=C(O[C@@H]1Cc2c(O)cc(O)cc2O[C@@H]1c1cc(O)c(O)c(O)c1)c1cc(O)c(O)c(O)c1 [EGCG, Epigallocatechin gallate]",blocking of formation of autoimmune complexes of autoantibodies to mutated vimentin,[1],blocked in a concentration-dependent manner
same,blocking of antibody binding,[1]; concentration of 10-100 μg/ml,no more than 45%
same,maximum plasma concentration for EGCG (content of 50% in the extract),[2]; [5],about 245 μg/ml
same,maximum plasma concentration of EC and EGCG (5-13% of the extract mass),[2]; [5],75 µg/mL
same,time of maximum plasma concentration after intake,[2]; extract from 5 g green tea (5 g/kg of body weight) in cocoa oil or salmon oil,About 2 hours
same,binding to vimentin,[3],binds to vimentin
"Oc1cc(O)c2c(c1)O[C@H](c1ccc(O)c(O)c1)[C@H](O)C2 [EC, Epicatechin]",blocking of antibody binding,"[1]; competition experiments, maximum",≤ 10%
O=C(O)c1cc(/N=N/c2ccc(S(=O)(=O)Nc3ccccn3)cc2)ccc1O [sulfasalazine],"antibody titers, fraction of the starting value",[4],⅙
Remicade: marketed drug used to treat severe rheumatoid arthritis,alteration in the DAS score due to treatment,[4],no significant alteration
C[C@]12CCC(=O)C=C1CC[C@@H]1[C@@H]2C(=O)C[C@@]2(C)[C@H]1CC[C@]2(O)C(=O)CO [cortisone],"antibody titers, fraction of the starting value",[4],⅙
CN(Cc1cnc2nc(N)nc(N)c2n1)c1ccc(C(=O)N[C@@H](CCC(=O)O)C(=O)O)cc1 [methotrexate],alteration in the DAS score due to treatment,[4],no significant alteration
